Data as given in patent publication US11103488B2, “Methods of treating autoimmune, respiratory and inflammatory disorders by inhalation of roflumilast N-oxide” (Incozen Therapeutics Pvt. Ltd., priority 2013, dated 2021).

Legend:
neutrophil infiltration = assay: Acute cigarette smoke induced cell infiltration, neutrophils; type: in vivo, female Balb/c mice; conditions: for Percent inhibition in neutrophil infiltration: intranasal, day 1 to day 4
Protocol: (§1) Animals were acclimatized for seven days prior to the start of the experiment. The animals were randomly distributed to various groups based on their body weight. For oral administration of roflumilast and for intranasal administration of roflumilast N-oxide, roflumilast or roflumilast N-oxide were prepared as a suspension in a suitable vehicle. On day 1, mice were administered roflumilast N-oxide or roflumilast and after 1 hour, the animals were placed in a whole body exposure box. On day 1 and day 2, the mice were exposed to the mainstream smoke of 6 cigarettes, and 8 cigarettes on day 3 and day 4. Exposure to the smoke of each cigarette lasted for 10 minutes (cigarettes were completely burned in the first two minutes and followed by an air flow with animal ventilator, then 20 minutes exposure to fresh room air). After every second cigarette an additional break of 20 minutes with exposure to fresh room air was conducted. Control animals were exposed to room air chamber. From day 1 to day 4, the animals were administered roflumilast N-oxide or roflumilast. On day 5, 24 hours after the last cigarette smoke (CS) exposure, the animals were exsanguinated under anaesthesia, the trachea were cannulated and the lungs were lavaged with 0.5-ml aliquots of heparinised PBS (1 unit/ml) four times through tracheal cannula (total volume 2 ml). Bronchioalveolar (BAL) collected was stored at 2-8° C. until assayed for total cell and differential leukocyte count. BAL fluid was centrifuged (500×g for 10 minutes) and the resulting cell pellet was resuspended in 0.5 ml of heparinised saline. The total number of white blood cells was determined in BAL fluid and adjusted to 1×10^6 cell/ml. Differential cell count was calculated manually by diff-quick staining. Forty microliters of the cell suspension was centrifuged using cytospin 3 to prepare a cell smear. The cell smear was stained with a blood staining solution for differentiation and microscopically observed to identify cell type according to their morphological characteristics. The number of each cell type among 300 white blood cells in the cell smear were determined and expressed as a percentage, and the number of neutrophils and macrophages in each BAL fluid were calculated.
(§2) Roflumilast and roflumilast N-oxide as a suspension in polysorbate 80 (1% v/v) and methyl cellulose (MC) (0.5% w/v) were used for oral and intranasal administration respectively.

[1] = 14-day repeat dose safety study; type: in vivo, Wistar Rats; conditions: Intratracheal, 1000 ug/kg/day, 14 days
Protocol: (§3) In order to determine the safety of roflumilast N-oxide by inhalation compared to roflumilast by oral administration, a 7- and 14-day repeat dose safety study was conducted according to the protocol given in Table 5 below.

[2] = Particle size distribution after micronization (Alpine Spiral Jet Mill); type: physicochemical; conditions: micronized
From the text: Laser diffraction measurement of particle size can use a dry method (wherein a suspension of the compound/salt in an airflow crosses the laser beam) or a wet method (wherein a suspension of the compound/salt in a liquid dispersing medium, such as isooctane (e.g. if compound is soluble in isooctane) or 0.1% Tween 80 in water, crosses the laser beam). With laser diffraction, particle size may be measured, for example, with a Malvern Mastersizer or Sympatec apparatus. For example, particle size measurement and/or analysis by laser diffraction can use any or all of (preferably all of) the following: a Malvern Mastersizer longbed version, a dispersing medium of 0.1% Tween 80 in water, a stir rate of ca. 1500 rpm, ca. 3 mins sonification prior to final dispersion and analysis, a 300 RF (Reverse Fourier) lens, and/or the Fraunhofer calculation with Malvern software. Unless specified otherwise, all d50 and d90 measurements are measured by laser diffraction using a wet method.
Provided below is an exemplary method used for micronization of roflumilast N-Oxide using an Alpine Spiral Jet Mill (HOSOKAWA). The process involved the following steps • 15 gm of Roflumilast N-oxide was weighed. • Main knob for compressed air supply was opened. • Adjusted venture pressure at 6.0 bar and ring pressure at 0.5 bar. • Roflumilast N-oxide was added at a feed rate of ˜200 mg/min manually through the hopper. • After completion of micronization, main air supply knob was turned off and micronized roflumilast N-oxide was collected

[3] = Lung microsome metabolic stability, human; type: in vitro ADME; conditions: 1 μM test item, 60 minutes, NADPH
Protocol: (§4) Metabolic stability studies were conducted using rat, dog and human lung microsomes. The protocol for the studies with rat, dog, and human lung microsomes (from Xenotech, USA) is provided below.
(§5) 0.4 mg protein was preincubated with 2 mM NADPH (cofactor) in phosphate buffer (pH˜7.4) for 15 minutes at […] and then added with 1 μM test item and incubated further for 60 minutes in triplicate. The reaction mixture was terminated with methanol containing an internal standard and centrifuged further to analyze the test item remaining in the supernatant by LC-MS/MS. The percent parent compound remaining was calculated in comparison with similar samples terminated at 0 minutes.

[4] = Lung microsome metabolic stability, rat; type: in vitro ADME; conditions: rat lung microsomes, 1 μM test item, 60 minutes, NADPH
Protocol: as §4, §5

[5] = 7-day repeat dose safety study; type: in vivo, Wistar Rats
Protocol: as §3

macrophage infiltration = assay: Acute cigarette smoke induced cell infiltration, macrophages; type: in vivo, female Balb/c mice; conditions: for Percent inhibition in macrophage infiltration: intranasal, day 1 to day 4
Protocol: as §1, §2

O=C(Nc1c(Cl)c[n+]([O-])cc1Cl)c1ccc(OC(F)F)c(OCC2CC2)c1 [Roflumilast N-oxide]
ED50 (neutrophil infiltration; Mus musculus, Neutrophil, inhaled or nasal, intranasal administration, read-out: 50% inhibition (ED50) dose, neutrophil infiltration): 0.038 mg/kg
Percent inhibition in neutrophil infiltration (neutrophil infiltration; 0.003 mg/kg): 26.60%
Percent inhibition in neutrophil infiltration (neutrophil infiltration; 0.03 mg/kg): 59.28%
Percent inhibition in neutrophil infiltration (neutrophil infiltration; 0.3 mg/kg): 66.49%
Percent inhibition in neutrophil infiltration (neutrophil infiltration; 3 mg/kg): 72.08%
MORTALITY [1]: No Mortality
Particle Size Distribution (PSD), D10 [2]: 0.777 μm
Particle Size Distribution (PSD), D50 [2]: 1.564 μm
Particle Size Distribution (PSD), D90 [2]: 3.021 μm
Percent Parent Compound Remaining, Human Non Smoker ([3]; human non smoker lung microsomes): 91.5%
Percent Parent Compound Remaining, Human Smoker ([3]; human smoker lung microsomes): 99.3%
Percent Parent Compound Remaining, Rat [4]: 100.0%
MORTALITY ([5]; Intratracheal, 1000 ug/kg/day, 7 days): No Mortality
Therapeutic window (safe dose relative to ED50) ([5]; intratracheal 1000 μg/kg versus ED50 of 27 μg/kg): more than 37 fold
Overall safety in repeat dose study ([5]; intratracheal administration, 1000 μg/kg): found to be safe
ED50 (macrophage infiltration; Mus musculus, Macrophage, inhaled or nasal, intranasal administration, read-out: 50% inhibition (ED50) dose, macrophage infiltration): 0.049 mg/kg
Percent inhibition in macrophage infiltration (macrophage infiltration; 0.003 mg/kg): 50.68%
Percent inhibition in macrophage infiltration (macrophage infiltration; 0.03 mg/kg): 55.10%
Percent inhibition in macrophage infiltration (macrophage infiltration; 0.3 mg/kg): 62.79%
Percent inhibition in macrophage infiltration (macrophage infiltration; 3 mg/kg): 63.35%
